Laboratory results taken from ChEMBL document CHEMBL1201862, “PubChem BioAssay data set” (2004).
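96-well plates; 48 h exposure; 5 concentrations. Endpoints by linear interpolation between flanking doses. Not reached: highest tested concentration assigned. The concentration for 50% growth inhibition is given as GI50.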 Active and inactive are the calls of the source. Rule as the data show it: active = GI50 up to about 1.1 µM and inactive = higher.

Key:
Test in all cases: inhibition of tumour cell growth, NCI panel, 48 h
786-0 = tested on: 786-0
A498 = tested on: A498
A549 = tested on: A549
ACHN = tested on: ACHN
BT-549 = tested on: BT-549
CAKI-1 = tested on: CAKI-1
CCRF-CEM = tested on: CCRF-CEM
COLO 205 = tested on: COLO 205
DU-145 = tested on: DU-145
EKVX = tested on: EKVX
HCC 2998 = tested on: HCC 2998
HCT-116 = tested on: HCT-116
HCT-15 = tested on: HCT-15
HL-60 = tested on: HL-60
HOP-62 = tested on: HOP-62
HT-29 = tested on: HT-29
Hs-578T = tested on: Hs-578T
IGROV-1 = tested on: IGROV-1
K562 = tested on: K562
KM12 = tested on: KM12
LOX IMVI = tested on: LOX IMVI
M14 = tested on: M14
MCF7 = tested on: MCF7
MDA-MB-231 = tested on: MDA-MB-231
MDA-MB-435 = tested on: MDA-MB-435
MDA-N = tested on: MDA-N
MOLT-4 = tested on: MOLT-4
Malme-3M = tested on: Malme-3M
NCI-H226 = tested on: NCI-H226
NCI-H23 = tested on: NCI-H23
NCI-H460 = tested on: NCI-H460
NCI/ADR-RES = tested on: NCI/ADR-RES
OVCAR-3 = tested on: OVCAR-3
OVCAR-4 = tested on: OVCAR-4
OVCAR-5 = tested on: OVCAR-5
OVCAR-8 = tested on: OVCAR-8
PC-3 = tested on: PC-3
RPMI-8226 = tested on: RPMI-8226
RXF 393 = tested on: RXF 393
SF-268 = tested on: SF-268
SF-295 = tested on: SF-295
SF-539 = tested on: SF-539
SK-MEL-28 = tested on: SK-MEL-28
SK-MEL-5 = tested on: SK-MEL-5
SK-OV-3 = tested on: SK-OV-3
SN12C = tested on: SN12C
SNB-19 = tested on: SNB-19
SNB-75 = tested on: SNB-75
SR = tested on: SR
SW-620 = tested on: SW-620
TK-10 = tested on: TK-10
U-251 = tested on: U-251
UACC-257 = tested on: UACC-257
UACC-62 = tested on: UACC-62
UO-31 = tested on: UO-31
HOP-92 = tested on: HOP-92
NCI-H522 = tested on: NCI-H522
SK-MEL-2 = tested on: SK-MEL-2

## Cc1ccc(N2C3=C(CC4=C2CC(C)(C)CC4=O)C(=O)CC(C)(C)C3)cc1
786-0
  GI50: > 100 µM (inactive)
A498
  GI50: > 100 µM (inactive)
A549
  GI50: > 100 µM (inactive)
ACHN
  GI50: > 100 µM (inactive)
BT-549
  GI50: > 100 µM (inactive)
CAKI-1
  GI50: > 100 µM (inactive)
CCRF-CEM
  GI50: > 100 µM (inactive)
COLO 205
  GI50: > 100 µM (inactive)
DU-145
  GI50: > 100 µM (inactive)
EKVX
  GI50: > 100 µM (inactive)
HCC 2998
  GI50: > 100 µM (inactive)
HCT-116
  GI50: > 100 µM (inactive)
HCT-15
  GI50: > 100 µM
HL-60
  GI50: > 100 µM (inactive)
HOP-62
  GI50: > 100 µM (inactive)
HT-29
  GI50: > 100 µM (inactive)
Hs-578T
  GI50: 20.6 µM (inactive)
IGROV-1
  GI50: > 100 µM (inactive)
K562
  GI50: > 100 µM (inactive)
KM12
  GI50: > 100 µM (inactive)
LOX IMVI
  GI50: > 100 µM (inactive)
M14
  GI50: > 100 µM (inactive)
MCF7
  GI50: > 100 µM (inactive)
MDA-MB-231
  GI50: > 100 µM (inactive)
MDA-MB-435
  GI50: > 100 µM (inactive)
MDA-N
  GI50: > 100 µM (inactive)
MOLT-4
  GI50: > 100 µM (inactive)
Malme-3M
  GI50: > 100 µM (inactive)
NCI-H226
  GI50: > 100 µM (inactive)
NCI-H23
  GI50: > 100 µM (inactive)
NCI-H460
  GI50: > 100 µM (inactive)
NCI/ADR-RES
  GI50: > 100 µM (inactive)
OVCAR-3
  GI50: > 100 µM (inactive)
OVCAR-4
  GI50: > 100 µM (inactive)
OVCAR-5
  GI50: > 100 µM (inactive)
OVCAR-8
  GI50: > 100 µM (inactive)
PC-3
  GI50: > 100 µM (inactive)
RPMI-8226
  GI50: > 100 µM (inactive)
RXF 393
  GI50: > 100 µM (inactive)
SF-268
  GI50: > 100 µM (inactive)
SF-295
  GI50: > 100 µM (inactive)
SF-539
  GI50: > 100 µM (inactive)
SK-MEL-28
  GI50: > 100 µM (inactive)
SK-MEL-5
  GI50: > 100 µM (inactive)
SK-OV-3
  GI50: > 100 µM (inactive)
SN12C
  GI50: > 100 µM (inactive)
SNB-19
  GI50: > 100 µM (inactive)
SNB-75
  GI50: 27.6 µM (inactive)
SR
  GI50: > 100 µM (inactive)
SW-620
  GI50: > 100 µM (inactive)
TK-10
  GI50: > 100 µM (inactive)
U-251
  GI50: > 100 µM (inactive)
UACC-257
  GI50: > 100 µM (inactive)
UACC-62
  GI50: > 100 µM (inactive)
UO-31
  GI50: > 100 µM (inactive)

## N#Cc1nc(-c2ccccn2)oc1N
786-0
  GI50: > 100 µM (inactive)
A498
  GI50: > 100 µM (inactive)
ACHN
  GI50: > 100 µM (inactive)
BT-549
  GI50: > 100 µM (inactive)
CAKI-1
  GI50: > 100 µM (inactive)
CCRF-CEM
  GI50: > 100 µM (inactive)
COLO 205
  GI50: > 100 µM (inactive)
DU-145
  GI50: > 100 µM (inactive)
EKVX
  GI50: > 100 µM (inactive)
HCC 2998
  GI50: > 100 µM (inactive)
HCT-116
  GI50: > 100 µM (inactive)
HCT-15
  GI50: > 100 µM
HL-60
  GI50: > 100 µM (inactive)
HOP-62
  GI50: > 100 µM (inactive)
HOP-92
  GI50: > 100 µM (inactive)
HT-29
  GI50: > 100 µM (inactive)
Hs-578T
  GI50: > 100 µM (inactive)
IGROV-1
  GI50: > 100 µM (inactive)
K562
  GI50: > 100 µM (inactive)
KM12
  GI50: > 100 µM (inactive)
LOX IMVI
  GI50: > 100 µM (inactive)
MCF7
  GI50: > 100 µM (inactive)
MDA-MB-231
  GI50: > 100 µM (inactive)
MDA-MB-435
  GI50: > 100 µM (inactive)
MDA-N
  GI50: > 100 µM (inactive)
MOLT-4
  GI50: > 100 µM (inactive)
Malme-3M
  GI50: > 100 µM (inactive)
NCI-H226
  GI50: > 100 µM (inactive)
NCI-H23
  GI50: > 100 µM (inactive)
NCI-H460
  GI50: > 100 µM (inactive)
NCI-H522
  GI50: > 100 µM (inactive)
OVCAR-3
  GI50: > 100 µM (inactive)
OVCAR-4
  GI50: > 100 µM (inactive)
OVCAR-5
  GI50: > 100 µM (inactive)
PC-3
  GI50: > 100 µM (inactive)
RPMI-8226
  GI50: > 100 µM (inactive)
RXF 393
  GI50: > 100 µM (inactive)
SF-268
  GI50: > 100 µM (inactive)
SF-295
  GI50: > 100 µM (inactive)
SK-MEL-28
  GI50: > 100 µM (inactive)
SK-MEL-2
  GI50: > 100 µM (inactive)
SK-MEL-5
  GI50: > 100 µM (inactive)
SK-OV-3
  GI50: > 100 µM (inactive)
SN12C
  GI50: > 100 µM (inactive)
SNB-19
  GI50: > 100 µM (inactive)
SR
  GI50: > 100 µM (inactive)
SW-620
  GI50: > 100 µM (inactive)
TK-10
  GI50: > 100 µM (inactive)
U-251
  GI50: > 100 µM (inactive)
UACC-257
  GI50: > 100 µM (inactive)
UACC-62
  GI50: > 100 µM (inactive)
UO-31
  GI50: > 100 µM (inactive)

## Nc1ccc2c(c1)Nc1c3ccccc3nc3cccc-2c13
786-0
  GI50: 1.21 µM (inactive)
A498
  GI50: 1.79 µM (inactive)
A549
  GI50: 1.36 µM (inactive)
ACHN
  GI50: 1.43 µM (inactive)
BT-549
  GI50: 3.6 µM (inactive)
CAKI-1
  GI50: 1.54 µM (inactive)
CCRF-CEM
  GI50: 3.85 µM (inactive)
COLO 205
  GI50: 1.34 µM (inactive)
DU-145
  GI50: 1.59 µM (inactive)
EKVX
  GI50: 1.69 µM (inactive)
HCC 2998
  GI50: 1.2 µM (inactive)
HCT-116
  GI50: 1.48 µM (inactive)
HL-60
  GI50: 3.66 µM (inactive)
HOP-62
  GI50: 1.3 µM (inactive)
HOP-92
  GI50: 1.6 µM (inactive)
HT-29
  GI50: 1.18 µM (inactive)
Hs-578T
  GI50: 2.03 µM (inactive)
IGROV-1
  GI50: 1.25 µM (inactive)
K562
  GI50: 0.416 µM (active)
KM12
  GI50: 1.32 µM (inactive)
LOX IMVI
  GI50: 1.3 µM (inactive)
M14
  GI50: 2.12 µM (inactive)
MCF7
  GI50: 0.794 µM (active)
MDA-MB-231
  GI50: 1.35 µM (inactive)
MDA-MB-435
  GI50: 1.81 µM (inactive)
MDA-N
  GI50: 1.42 µM (inactive)
MOLT-4
  GI50: 0.391 µM (active)
Malme-3M
  GI50: 1.85 µM (inactive)
NCI-H226
  GI50: 1.62 µM (inactive)
NCI-H23
  GI50: 1.48 µM (inactive)
NCI-H460
  GI50: 1.02 µM (active)
NCI-H522
  GI50: 1.55 µM (inactive)
NCI/ADR-RES
  GI50: 1.66 µM (inactive)
OVCAR-3
  GI50: 1.72 µM (inactive)
OVCAR-4
  GI50: 1.72 µM (inactive)
OVCAR-5
  GI50: 1.77 µM (inactive)
PC-3
  GI50: 1.54 µM (inactive)
RPMI-8226
  GI50: 1.84 µM (inactive)
RXF 393
  GI50: 1.64 µM (inactive)
SF-268
  GI50: 1.73 µM (inactive)
SF-295
  GI50: 1.29 µM (inactive)
SF-539
  GI50: 1.66 µM (inactive)
SK-MEL-28
  GI50: 1.99 µM (inactive)
SK-MEL-2
  GI50: 1.73 µM (inactive)
SK-MEL-5
  GI50: 1.75 µM (inactive)
SK-OV-3
  GI50: 1.61 µM (inactive)
SN12C
  GI50: 1.29 µM (inactive)
SNB-19
  GI50: 1.64 µM (inactive)
SNB-75
  GI50: 1.4 µM (inactive)
SR
  GI50: 0.281 µM (active)
SW-620
  GI50: 0.585 µM (active)
TK-10
  GI50: 2.13 µM (inactive)
U-251
  GI50: 1.53 µM (inactive)
UACC-257
  GI50: 2 µM (inactive)
UACC-62
  GI50: 1.82 µM (inactive)
UO-31
  GI50: 1.72 µM (inactive)
